Values after ≈ are worked out from the molar mass of the structure shown.
Legend:
human GPR40 receptor = human GPR40 receptor (Homo sapiens, UniProt O14842); assay: IP1 accumulation measurements using the IPOne assay system (1321N1 cells stably expressing human GPR40 receptor); type: cell-based; details: 1321N1 cells expressing human GPR40, 1 h stimulation at 37° C.
How it was run: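 Cells were stimulated with compounds for 1 h at 37 °C in HEPES-buffered stimulation buffer containing 50 mM LiCl, pH 7.4. IP1 was then detected by HTRF (IP1-d2/anti-IP1 cryptate, 1 h at room temperature), and 665/615 ratios were converted using an IP1 reference curve, with pEC50 obtained by variable-slope sigmoidal fitting.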

[1] = target: T1, cytochrome P450 2C8-isoenzyme (Homo sapiens, UniProt P10632); assay: Inhibition of CYP-2C8 (deethylation of amodiaquine, human liver microsomes); type: in vitro ADME; details: CYP-2C8, human liver microsomes, amodiaquine 1 μM, 37° C.
T1 construct: from tissue; host or cells: human liver microsomes
T1 sequence (P10632 1-490): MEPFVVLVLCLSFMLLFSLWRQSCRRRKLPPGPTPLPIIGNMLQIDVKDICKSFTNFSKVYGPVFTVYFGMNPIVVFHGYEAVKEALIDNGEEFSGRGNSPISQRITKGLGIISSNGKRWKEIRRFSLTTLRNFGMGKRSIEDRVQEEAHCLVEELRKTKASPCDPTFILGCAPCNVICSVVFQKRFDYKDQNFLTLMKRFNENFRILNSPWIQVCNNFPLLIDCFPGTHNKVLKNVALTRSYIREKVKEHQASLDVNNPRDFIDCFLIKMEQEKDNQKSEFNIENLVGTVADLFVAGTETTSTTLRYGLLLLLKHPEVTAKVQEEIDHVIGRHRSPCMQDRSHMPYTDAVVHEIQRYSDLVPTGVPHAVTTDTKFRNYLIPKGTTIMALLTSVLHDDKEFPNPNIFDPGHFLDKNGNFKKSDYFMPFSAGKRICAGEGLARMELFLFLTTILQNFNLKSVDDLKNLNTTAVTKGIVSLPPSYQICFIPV
How it was run: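 Amodiaquine deethylation (1 μM substrate) was measured at 37 °C in human liver microsomes (0.05 mg/mL), 0.1 M Tris, 5 mM MgCl2, and started with 1 mM NADPH. Desethylamodiaquine was quantified by LC-MS/MS against a d5 internal standard. IC50 came from five concentrations, typically top 10–50 μM with 1:4 dilutions, fitted by least squares to a slope-and-background model.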

[2] = Aqueous solubility in buffer vs acetonitrile/water (1/1), LC-UV; type: physicochemical; details: kinetic from dmso stock, buffer pH 2.2, 24 h shaking, 2.5% DMSO
How it was run: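 Aliquots of 10 mM DMSO stock diluted into buffer or acetonitrile/water (1/1), shaken 24 h, filtered and quantified by LC-UV; buffer amount compared with acetonitrile/water amount. Range 0.001-0.125 mg/mL at 2.5% DMSO; ">" marks over 90% dissolved.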

[3] = target: T2, cytochrome P450 2C9-isoenzyme (Homo sapiens, UniProt P11712); assay: Inhibition of CYP-2C9 (hydroxylation of diclofenac, human liver microsomes); type: in vitro ADME; details: CYP-2C9, human liver microsomes, diclofenac 10 μM, 37° C.
T2 construct: from tissue; host or cells: human liver microsomes
How it was run: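 Human liver microsomes (0.1 mg/mL) in 0.1 M TRIS, 5 mM MgCl2, 10 μM diclofenac, 37 °C, duplicate five-point compound series; started with 1 mM NADPH, quenched by cooling and acetonitrile. Hydroxydiclofenac quantified by LC-MS/MS against 13C6 internal standard; IC50 by least-squares fit with slope and background terms.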

[4] = Chemical stability: degradation kinetics in acidic aqueous media (pH ca. 1.2), HPLC recovery; type: physicochemical; details: pH value of ca. 1.2 (acetonitrile/0.1 M aqueous HCl 2:3), 37° C.
Method: Degradation kinetics is used to simulate chemical stability of compounds in the acidic part of the gastro intestinal tract. […] Their application as medical drugs to treat human diseases is therefore less restricted and troublesome.
The chemical stability of the compounds of the invention at pH value of ca. 1.2 is determined as follows:
Compound is dissolved in an HPLC vial either in a mixture of acetonitrile/0.1 M aqueous HCl (2:3; pH ca. 1.2) or in a mixture of acetonitrile/McIlvaine buffer pH 7.4 (2:3) to get a concentration of approximately 0.25 mg/ml. The vial was then transferred into an HPLC autosampler system and maintained at a temperature of 37° C. A first sample is taken and injected immediately into a standard HPLC system with a UV DAD detector. Further samples are injected after 2, 4, 6, 8 and 10 hours. Amount of degraded compound is measured by determining the recovery rate of compound [%] for each injection using an HPLC standard gradient method. Therefore the peak area of the main peak for the first injection (AUt0) is determined and set as 100%. Peak area of the main peak is determined also for the further injections (AUtn, n=2, 4, 6, 8, 10) and expressed as fraction of (AUt0)/(AUtn, n=2, 4, 6, 8, 10) [%].

Chain of human GPR40 receptor (O14842 whole entry): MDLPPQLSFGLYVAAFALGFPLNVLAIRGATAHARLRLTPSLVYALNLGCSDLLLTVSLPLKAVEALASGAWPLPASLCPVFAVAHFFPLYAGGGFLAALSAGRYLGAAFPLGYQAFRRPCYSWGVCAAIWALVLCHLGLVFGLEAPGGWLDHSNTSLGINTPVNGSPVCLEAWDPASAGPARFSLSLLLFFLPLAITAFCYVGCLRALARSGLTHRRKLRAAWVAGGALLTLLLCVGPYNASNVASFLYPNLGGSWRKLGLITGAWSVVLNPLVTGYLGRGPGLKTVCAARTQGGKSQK
T2 sequence (P11712 whole entry): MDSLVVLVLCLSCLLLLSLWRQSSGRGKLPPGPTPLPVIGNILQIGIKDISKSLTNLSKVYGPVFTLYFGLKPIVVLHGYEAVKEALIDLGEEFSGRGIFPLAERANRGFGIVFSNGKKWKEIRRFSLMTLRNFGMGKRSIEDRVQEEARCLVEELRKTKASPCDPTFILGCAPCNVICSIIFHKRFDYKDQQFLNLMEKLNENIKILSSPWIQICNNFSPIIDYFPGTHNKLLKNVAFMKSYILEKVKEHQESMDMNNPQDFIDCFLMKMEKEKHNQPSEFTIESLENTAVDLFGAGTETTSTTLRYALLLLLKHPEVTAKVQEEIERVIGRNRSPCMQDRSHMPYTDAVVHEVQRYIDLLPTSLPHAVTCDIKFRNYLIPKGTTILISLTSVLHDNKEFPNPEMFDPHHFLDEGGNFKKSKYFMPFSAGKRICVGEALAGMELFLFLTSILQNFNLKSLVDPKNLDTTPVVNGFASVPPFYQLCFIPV

Compound	EC50 (human GPR40 receptor) [µM]	IC50 [1] [µM]	solubility at 24 h [2] [µg/mL]	IC50 [3] [µM]	Amount of degradation after 2 h [4] [%]
Cc1cc(OCCC(C)(C)O)cc(C)c1-c1ccc(F)c2c1CC[C@H]2Nc1ccc([C@H]2C[C@@H]2C(=O)O)cn1 [Example 4, (1S,2S)-2-(6-{(R)-7-Fluoro-4-[4-(3-hydroxy-3-methyl-butoxy)-2,6-dimethyl-phenyl]-indan-1-ylamino}-pyridin-3-yl)-cyclopropanecarboxylic acid]	0.008	46	89 (≈ 172 µM)	> 50	<0.5
Cc1cc(-c2ccn(C)c(=O)c2)cc(C)c1-c1ccc(F)c2c1CC[C@H]2Nc1ccc([C@H]2C[C@@H]2C(=O)O)cn1 [Example 36]	0.006	10	107 (≈ 204 µM)	> 50	<0.5
Cc1cc(-c2nnn(C)n2)cc(C)c1-c1cccc2c1CC[C@H]2Nc1ccc([C@H]2C[C@@H]2C(=O)O)cn1 [Example 1, (1S,2S)-2-(6-{(R)-4-[2,6-Dimethyl-4-(2-methyl-2H-tetrazol-5-yl)-phenyl]-indan-1-ylamino}-pyridin-3-yl)-cyclopropanecarboxylic acid]	0.007	16	67 (≈ 139 µM)	48	<0.5
COc1cc(C)c(-c2ccc(F)c3c2CC[C@H]3Nc2ccc([C@H]3C[C@@H]3C(=O)O)cn2)c(C)c1 [Example 19]	0.016	26	67 (≈ 150 µM)	35	<1.0
CC(C)c1ccccc1-c1ccc(F)c2c1CC[C@H]2Nc1ccc([C@H]2C[C@@H]2C(=O)O)cn1 [Example 47]	0.026	12	72 (≈ 167 µM)	14	<0.5
O=C(O)[C@H]1C[C@@H]1c1ccc(N[C@@H]2CCc3c(-c4ccccc4C(F)(F)F)ccc(F)c32)nc1 [Example 74]	0.049	21	82 (≈ 180 µM)	14	<1.0
Cc1cc(OCCC(C)(C)O)cc(C)c1-c1cccc2c1CC[C@H]2Nc1ccc([C@H]2C[C@@H]2C(=O)O)cn1 [Example 2, (1S,2S)-2-(6-{(R)-4-[4-(3-Hydroxy-3-methyl-butoxy)-2,6-dimethyl-phenyl]-indan-1-ylamino}-pyridin-3-yl)-cyclopropanecarboxylic acid]	0.011	30	83 (≈ 166 µM)	> 50	<0.5

— US9617251B2, “Indanylaminopyridylcyclopropanecarboxylic acids, pharmaceutical compositions and uses thereof” (BOEHRINGER INGELHEIM INTERNATIONAL GMBH, priority 2015, dated 2017)
